What was measured:
[1] = system: human pluripotent stem cells; assay: HD-DoE 12-factor experiment for stage 1 recipe, gene expression by quantitative PCR after 3 days; format: cell-based; details: for factor contribution on expression of SIX3: model optimized for maximal expression of SIX3, 3-day treatment; for factor contribution on expression of FEZF2: model optimized for maximum expression of FEZF2
Source text: This example utilizes a method of High-Dimensional Design of Experiments (HD-DoE), as previously described in Bukys et al. (2020) […] 23:101346. The method employs computerized design geometries to simultaneously test multiple process inputs and offers mathematical modeling of a deep effector/response space. The method allows for finding combinatorial signaling inputs that control a complex process, such as during cell differentiation. It allows testing of multiple plausible critical process parameters, as such parameters impact output responses, such as gene expression. Because gene expression provides hallmark features of the phenotype of, for example, a human cell, the method can be applied to identify, and understand, which signaling pathways control cell fate. In the current example, the HD-DOE method was applied with the intent to find conditions for induction of […] neural progenitor-expressed genes, directly from the pluripotent stem cell state. To develop the recipe for each stage, the impact of agonists and antagonists of multiple signaling pathways (herein called effectors) on the expression of two sets of 53 pre-selected genes, after a 3-day treatment, has been tested and modeled. These effectors are small molecules or proteins that are commonly used during stepwise differentiation of stem cells to specific fates. Choice of the effectors were based on current literature on neural induction in forebrain region of developing brain and differentiation of stem cells to neural progenitors. To test the effectors, experiments with at least 8 factors were designed that can assess the response of cells to 48 or more different combinations of effectors in a range of concentrations. To analyze the models, we focused on expression of genes involved in development and patterning of the anterior neuroectoderm and forebrain including OTX2 (Hoch et al. (2015) Cell Reports 12:482-494), SIX3 (Lagutin et al. (2003) Genes & Development 17:368-379) and FEZF2 (Zhang et al. (2014) Development 141:4794-[…]). At later stages we focused on dorsoventral patterning of telencephalon and gene expressed in ventral forebrain including NKX2-1 and absence of PAX6 which is a dorsal forebrain marker (Stoykova et al. (2000) J. Neurosci. 20:8042-8050). The impact of each effector on gene expression level is defined by a parameter called factor contribution that is calculated for each effector during the modeling. To identify the recipe for stage 1 of differentiation, 96 different combinations of effectors generated using Design-of-Experiments compression through D-optimality were robotically prepared. The effector combinations were prepared in a basal media and were subsequently added to the cells, which were then allowed to differentiate. Three days later RNA extraction was performed, and gene expression was obtained using quantitative PCR analysis. […] Solutions within the tested space could then be explored to address desirability. Optimizing for maximal expression of SIX3 at 3300 and FEZF2 1355 expression values led to robust solutions. This model was derived from testing 12 effectors including AGN193109, LDN193189, CHIR99021, XAV939, IGF2, Purmorphamine, 4-oxo-RA, TTNPB, SR11237, FGF8, PD0325901 and […]. […] The model was also optimized for maximum expression of FEZF2 separately at 3576 expression value to find any additional factors that can boost expression of forebrain genes. […] To find the set of factors that have the potential to optimize all 3 genes in this experiment, a new assessment was done through dynamic profile analysis with focus on maximal expression of OTX2, FEZF2 and SIX3.

[2] = system: human pluripotent stem cells; assay: additional HD-DoE experiment for stage 1 (forebrain differentiation from pluripotency), optimized for FEZF2; format: cell-based; details: for impact on expression of FEZF2: dynamic profile, FIG. 6; for factor contribution on expression of FEZF2: positive impact, additional stage 1 experiment optimized for FEZF2, FIG. 5
Protocol: To identify the recipe for stage 1 of differentiation, 96 different combinations of effectors generated using Design-of-Experiments compression through D-optimality were robotically prepared. The effector combinations were prepared in a basal media and were subsequently added to the cells, which were then allowed to differentiate. Three days later RNA extraction was performed, and gene expression was obtained using quantitative PCR analysis. The data were normalized and modeled using partial least squares regression analysis to the effector design, resulting in the generation of gene-specific models, which after model tuning for maximal Q2 predictive power, provided explanation of the effectors ability to control the expression of individual genes, combinatorially, and individually. Solutions within the tested space could then be explored to address desirability.
To further enhance the conditions for forebrain differentiation from pluripotency, an additional HD-DoE experiment was performed. Additional gene regulatory models were obtained that were used for preparation of the differentiation protocol. The factors in this experiment included LDN193189, PD173074, BLU9931, Purmorphamine, SC79, MK2206, ZM336372, PD0325901, CHIR99021, XAV939, UCLA-GP130, Tofacitinib and GO6983. […] Dynamic profile analysis was also used to assess the interaction between the effectors.

[3] = system: forebrain-committed neural stem cells (stage 1 neural stem cells); assay: HD-DoE 12-factor experiment for stage 2 recipe, optimized for NKX2-1; format: cell-based, human; details: model maximized for NKX2-1 / dynamic profile, FIG. 7 and 8
Method in brief: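 Forebrain-committed neural stem cells treated for 3 days after stage 1 with combinations of 12 factors (LDN193189, BMP7, PD0325901, MK2206, A8301, XAV939, CHIR99021, purmorphamine, SANT-1, AGN193109, TTNPB, GSI-XX). Response scored as maximal NKX2-1 and minimal PAX6 expression.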

[4] = system: human pluripotent stem cells; assay: factor criticality analysis (dynamic profile analysis) of stage 1 recipe; format: cell-based; design: unit not given here; details: other five factors present; for expression level of FEZF2 when the effector is removed: 2000 with all six factors; for expression level of SIX3 when the effector is removed: 3000 with all six factors; for expression level of OTX2 when the effector is removed: 5500 with all six factors
Protocol: To assess the impact of the elimination of each validated factor, dynamic profile analysis was used and compared the expression level of genes of interest in absence of each finalized factor while others are present.
In the stage 1 recipe, each of the six finalized factors were removed individually while the other five factors were present and expression levels of forebrain genes was assessed compared to the presence of all six factors together. The results are summarized in FIG. 11A-B. When LDN193189 was removed, expression levels of FEZF2, OTX2 and SIX3 were decreased drastically from 2000 to 1000, 5500 to 4000 and 3000 to 0, respectively. […] When Purmorphamine was removed, levels of FEZF2 and SIX3 were decreased to 1000 and below 3000, while levels of OTX2 increased to 6500.

[5] = dynamic profile analysis, FIG. 4

Structure (SMILES)	factor contribution, important input for high expression of SIX3 ([1]; FIG. 2 legend, model optimized for maximum expression of SIX3 as printed)	impact on expression of OTX2 [1, 5]	factor contribution on expression of OTX2 ([1]; positive impact, model of maximum expression of OTX2)	factor contribution on expression of SIX3 ([1]; positive impact)	factor contribution on expression of FEZF2 ([1]; positive impact)	impact on expression of FEZF2 [2]	factor contribution on expression of FEZF2 [2]	impact on expression of NKX2-1 [3]	expression level of FEZF2 when the effector is removed [4]	expression level of SIX3 when the effector is removed [4]	expression level of OTX2 when the effector is removed [4]	impact on expression of FEZF2 [1, 5]	impact on expression of SIX3 [1, 5]
c1ccc2c(-c3cnn4cc(-c5ccc(N6CCNCC6)cc5)cnc34)ccnc2c1 [LDN193189]	24.9	positive impact	8	16	25	positive impact	18	increase its expression level	1000	0	4000		
c1ccc2c(Oc3nc(Nc4ccc(N5CCOCC5)cc4)c4ncn(C5CCCCC5)c4n3)cccc2c1 [Purmorphamine]		negative effect		5	7	positive impact	11	increase its expression level	1000	below 3000	6500	positive impact	positive impact

— patent US20230332103A1, “Methods and Compositions for Generating Human Forebrain Neural Progenitor Cells and for Maturation Thereof to Parvalbumin+ Interneurons” (Trailhead Biosystems Inc., priority 2021, published 2023)
